Laboratory results published in patent publication US11999758B2, “Inhibitors of the YAP/TAZ-TEAD interaction and their use in the treatment of cancer” (INVENTIVA, priority 2018, dated 2024).

Assays:
[1] = tested on: NCI-H2052 mesothelioma cell; experiment: Inhibition of malignant mesothelioma tumor cell growth (EdU proliferation); type: cell-based; conditions: NF2 mutated cell line; FIG. 1 (x)
Protocol: (§1) The tumor cell growth inhibitory activity of the YAP-TEAD interaction inhibitors was evaluated in NCI-H-2052 mesothelioma cell line harboring a NF2 mutation. This cell line was selected based on its mutational status and the ability of a siRNA directed against YAP, TAZ or TEAD1-4 to inhibit cell proliferation. The nuclear localization of YAP at confluence was also taken into account. Based on these observations we were able to classify several “YAP dependent cells” where YAP is clearly nuclear and in which a cell growth inhibition is observed by using siRNA (NCI-H-2052, SKOV-3, ACHN, A549) and the “YAP independent cells” where YAP is preferentially located in the cytoplasm and in which no inhibition of cell growth is observed by using a siRNA (SW620, Met-5a). […] After one day growth in the starvation medium, cells were incubated with compounds. The starting concentration was 30 μM and serial dilutions in DMSO and medium were performed until 0.1 μM to achieve a final DMSO concentration of 0.5%. The cells were then allowed to grow for 3 days, and then, EdU (Invitrogen, Molecular Probe) was added in each well at a final concentration of 10 μM and the cells were returned to the incubator for an additional 24 h. The starvation medium was removed and 100 μl of PFA 4% containing Hoechst dye was adding in each well to fix the cells. Plates were then incubated at rt for 15 min, washed twice with PBS and the cells were permeabilized by adding 100 μl per well of triton-100 containing 0.3% BSA. After 20 min, cells were washed with PBS and EdU detection was performed according to the instructions of the manufacturer. Image acquisition was performed using the ImageXpress Micro and analyzed using the MetaXpress software (Molecular Device). Results were expressed as a percent of inhibition (%) of the cell proliferation values obtained with 0.5% DMSO treatment alone. The cellular response was determined by fitting the concentration response curves using a 3 parameter curve fit equation and determining the concentration that inhibited cell growth between 50% and 100%.

[2] = tested on: Met5A cell line; experiment: Cell proliferation in YAP-independent cell line (EdU); type: cell-based; conditions: FIG. 1 (▪)
Protocol: as §1

[3] = target: T1, YAP-TEAD interaction (Homo sapiens, UniProt P28347); experiment: Cell-based TEAD-GAL4 transactivation assay (luciferase reporter); conditions: HEK293 cells transfected with TEAD1-Gal4, YAP mutant (S127A, S397A) and luciferase reporter, compounds 0.1 μM to 30 μM; for Emax: HEK293, 24 h, read-out: TEAD-GAL4 Transactivation activity Max Act; for IC50: 24 h
T1 construct: expressed in transfected cells; host or cells: HEK293 GripTite 293 MSR (Invitrogen R795-07)
How it was run: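 HEK293 cells transiently transfected with Gal4-DBD–full-length human TEAD1, full-length YAP S127A/S397A (YAP/TEAD ratio 10) and a 5×GAL4-RE TK-luciferase reporter. Six hours later, compounds added semi-log from 0.1 to 30 μM (DMSO 0.5% control) for 24 h. Luciferase read; IC50 from 3-parameter fit.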

T1 sequence (P28347 whole entry, the tested form may be a part): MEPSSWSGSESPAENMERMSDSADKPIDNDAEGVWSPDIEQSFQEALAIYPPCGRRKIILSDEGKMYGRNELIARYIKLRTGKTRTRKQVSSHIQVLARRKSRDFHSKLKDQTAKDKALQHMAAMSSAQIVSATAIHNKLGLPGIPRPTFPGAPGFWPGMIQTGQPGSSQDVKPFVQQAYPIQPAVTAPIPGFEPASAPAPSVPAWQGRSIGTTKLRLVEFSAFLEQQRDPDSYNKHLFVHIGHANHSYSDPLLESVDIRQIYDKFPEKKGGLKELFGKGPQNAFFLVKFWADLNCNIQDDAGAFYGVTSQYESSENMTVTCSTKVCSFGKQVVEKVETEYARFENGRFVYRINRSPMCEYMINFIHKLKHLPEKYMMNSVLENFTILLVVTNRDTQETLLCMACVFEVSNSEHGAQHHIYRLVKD

For `CSc1nc2ncnc(N(C)/N=C/c3ccc4c(c3)COB4O)c2s1` [Ex75, N-[(E)-(1-hydroxy-3H-2,1-benzoxaborol-5-yl)methyleneamino]-N-methyl-2-methylsulfanyl-thiazolo[4,5-d]pyrimidin-7-amine], the “NCI-H2052 mesothelioma cell proliferation” value [1] was “inhibited”, the melting point was 262 to 286 °C and the “effect in the Met5A cell line” value [2] was “without showing any effect”. It also gave an Emax [3] of 94% and an IC50 [3] of 900 nM.
For `Cc1csc2c(N3N=C(c4ccc5c(c4)COB5O)CCC3C)ncnc12` (stereo not drawn) [Ex118, 4-[6-(1-hydroxy-3H-2,1-benzoxaborol-5-yi)-3-methyl-4,5-dihydro-3H-pyridazin-2-yl]-7-methyl-thieno[3,2-d]pyrimidine], the “NCI-H2052 mesothelioma cell proliferation” value [1] was “inhibited”, the “effect in the Met5A cell line” value [2] was “without showing any effect” and the Emax [3] was 86%. It also gave an IC50 [3] of 270 nM.
In the case of `COc1cc(/C=N/N(CC(C)C)C2=NS(=O)(=O)c3ccccc32)ccc1B(O)O` [Ex 1, [4-[(E)-[(1,1-dioxo-1,2-benzothiazol-3-yl)-isobutyl-hydrazono]methyl]-2-methoxy-phenyl]boronic acid], the “NCI-H2052 mesothelioma cell proliferation” value [1] is reported as “inhibited”, the “effect in the Met5A cell line” value [2] is reported as “without showing any effect” and the Emax [3] is reported as 86%. For the same compound, the IC50 [3] was 7310 nM.
For `COc1cc(/C=N/N(CC(C)C)c2ncnc3ccsc23)ccc1B(O)O` [Ex 20, [4-[(E)-[isobutyl(thieno[3,2-d]pyrimidin-4-yl)hydrazono]methyl]-2-methoxy-phenyl] boronic acid], the “NCI-H2052 mesothelioma cell proliferation” value [1] was “inhibited”, the “effect in the Met5A cell line” value [2] was “without showing any effect” and the Emax [3] was 87%. For the same compound, the IC50 [3] was 1340 nM.
In the case of `CCN(/N=C/c1ccc2c(c1)COB2O)c1ncnc2c(C)csc12` [Ex 42, N-ethyl-N-[(E)-(1-hydroxy-3H-2,1-benzoxaborol-5-yl)methyleneamino]-7-methyl-thieno[3,2-d]pyrimidin-4-amine], the “NCI-H2052 mesothelioma cell proliferation” value [1] is reported as “inhibited”, the “effect in the Met5A cell line” value [2] is reported as “without showing any effect” and the Emax [3] is reported as 81%. For the same compound, the IC50 [3] was 260 nM.
